{"source": "patent US20170176446A1", "about": "“Methods for Determining the Oncogenic Condition of Cell, Uses Thereof, and Methods for Treating Cancer” (INSERM (INSTITUT NATIONAL DE LA SANTE ET DE LA RECHERCHE …, priority 2009, published 2017)", "key": {"[1]": {"test_system": "OCDO", "assay": "OCDO content of TS/A tumors by GC/MS", "assay_type": "in vivo, mice", "details": "DDA 10 μM, 100 μl intratumorally once a day", "experimental": "5 volumes (relative to the mass removed) of buffer (50 mM Tris-HCl, 150 mM KCl, pH=7.4) are added. The tumors are ground and the homogenates are centrifuged for 5 minutes at 2500 rpm at 4° C. […] After centrifugation (to separate the phases), the organic phase is recovered. The organic phase is evaporated to dryness and then the residue is taken up with 0.5 ml of chloroform. The organic extracts are filtered on 0.5 ml silica cartridges. The polar sterols are eluted sequentially:\n1) 0.5 ml of a hexane/chloroform mixture (1/1), 2) 0.5 ml of chloroform, 3) 0.5 ml of ethyl acetate and methanol.\nThe ethyl acetate fractions are evaporated, silylated (50 μl 1/1 acetonitrile/BSTFA) and then analyzed by GC/MS (2 μl) according to the conditions described above."}, "[2]": {"target": "T1, ChEH (Homo sapiens, UniProt Q15125)", "T1 construct": "MCF7 tumor cells, which originate from the American Tissue Culture Collection (ATCC), were used; host or cells: MCF7", "T1 sequence (Q15125 whole entry)": "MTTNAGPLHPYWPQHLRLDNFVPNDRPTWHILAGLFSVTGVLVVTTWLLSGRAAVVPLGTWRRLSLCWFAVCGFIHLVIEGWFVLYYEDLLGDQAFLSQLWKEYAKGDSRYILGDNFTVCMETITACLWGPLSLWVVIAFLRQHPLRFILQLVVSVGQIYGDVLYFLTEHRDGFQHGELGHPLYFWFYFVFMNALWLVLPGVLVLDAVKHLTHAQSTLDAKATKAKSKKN", "assay": "Inhibition of ChEH activity in MCF7 cells (TLC of [14C]CE conversion)", "assay_type": "cell-based", "details": "48 hours, MCF7 cells", "experimental": "For this experiment, an aminoalkyl sterol included in French patent 2 838 741 (and also see: de Medina et al., J Med Chem: 2009, vol. 52, No. 23, p. 7765-7777), having the formula: 6-N-[2-(3H-imidazol-4-yl)ethylamino]cholestane-3β,5α-diol (DDA), was chosen. […]\nA thin-layer chromatography was carried out, the plate of which has been reproduced in FIG. 23. On this plate, the incubation is carried out, for lane 1, with [^14C]CE; for lane 2, with [^14C]CT; for lane 3, with the vehicle solvent, which is the same as that used for assays 1 to 5; for lane 4, with [14C]CE and 0.1 μM of the aminoalkyl sterol; and for lane 5, with [^14C]CE and a concentration of 1 μM of the aminoalkyl sterol."}, "[3]": {"test_system": "MCF7 cells", "assay": "OCDO production by MCF7 cells incubated with [14C]CE, thin-layer chromatography", "assay_type": "cell-based, human", "details": "concentration in μM in parentheses after each molecule; control = 100", "excerpt": "For assays 1 to 5 and in some of the examples given later in this patent application, MCF7 tumor cells, which originate from the American Tissue Culture Collection (ATCC), were used. […] It is desired to study the activity of ChEH in […] cells by silica thin-layer chromatography. The compounds that it is desired to visualize are the CE and CT compounds defined above. In order to visualize the spots corresponding to CE and CT on a chromatography plate, ^14C-labeled CE and CT compounds were synthesized.\nIn order to be used in assays 1 to 5 which follow, the cells are seeded into 6-well plates at a density of 80 000 cells in a volume of 2 ml. […] After the incubation time desired for the assay, the medium is collected, the cells are washed with cold PBS (phosphate buffer) (2 ml per well) which is pooled with the medium. The cells are then scraped into cold PBS (1 ml for 3 wells); the wells are again rinsed with cold PBS (1 ml for 3 wells). The cell suspension obtained is centrifuged at 1000 rpm for 5 min at 4° C. […] Throughout the rest of this description, the vehicle solvent used is the same as that defined above.\nThe aqueous and organic radioactivities are counted. The organic phases are brought to dryness under argon. The residue is resuspended in 60 μl of ethanol and then deposited, in a proportion of 20 μl per lane, on to the glass-backed silica plates (Whatman LK-6-DF, 20×20), which are used in the various assays (these plates having been preheated at 100° C. for 1 hour). The migration solvent used is ethyl acetate. The chromatography plates are placed in contact with a “phosphor-screen” plate in a cassette overnight. […] In order to evaluate the more or less dense nature of the spots obtained on the plates, the radioactivity is quantified by densitometry with the “Imagequant”™ computer program.\nGenerally, in order to establish the percentages of OCDO inhibition from the thin-layer chromatography (TLC) plates obtained as in assay 2, the radioactive metabolites are identified and quantified on the basis of said plates using a europium-sensitive plate of GP Phosphor screen type (GE Healthcare) and a Storm 840 phosphorimagor (GE Healthcare). The proportion of radiolabeled oxysterols is determined on the autoradiogram obtained by densitometry using the Image Quant 5.2 software. The percentage is calculated on the basis of the ratio between the amount of oxysterols quantified divided by the sum of the amounts of oxysterols (CEE+CE+CT+OCDO). Since the CEE (CE ester) originates exclusively from the CE, the percentage CE is calculated on the basis of the ratio (CE+CEE)/(CE+CEE+CT+OCDO).\nAssay 2 given above was therefore completed by measuring the amounts of the products present when the MCF7 tumor cells are incubated as indicated in detail in assay 2.\nIn order to establish that the link that exists between, on the one hand, the ability of various compounds to inhibit OCDO in an MCF7 tumor cell and, on the other hand, their quality as a ChEH inhibitor, is well-founded, the inhibition coefficients Ki for ChEH relating to a certain number of products was calculated and the production of OCDO by MCF7 cells after incubation of the cells with the same products was measured according to the protocol defined in assay 2 of the present patent application."}, "[4]": {"target": "T1, ChEH", "assay": "ChEH activity on MCF7 cell lysate (homogenate)", "assay_type": "biochemical", "details": "150 μg of proteins, read-out: (IC50)homogenate, ChEH inhibition", "experimental": "Moreover, a study of this inhibition on homogenate was also carried out. The protocol is as follows: the MCF7 cells are detached with trypsin and taken up with RPMI medium containing 5% FBS. The cell suspension obtained (60 million cells) is centrifuged, washed with cold PBS and resuspended in 1 ml of […] buffer (pH=7.4; 150 mM KCl). The cells are lyzed by means of five freezing/thawing (liquid nitrogen/37° C.) cycles. The solution is centrifuged at 1200 rpm at 4° C. for 10 minutes. The supernatant is recovered and the amount of proteins is determined by the Bradford method. The measurement of the ChEH activity on MCF7 cell lysate is carried out as follows: the enzymatic activity is measured on 150 μg of proteins in a final volume of 150 μl containing […] of ChEH buffer (Tris-HCl, pH 7.4, 150 mM KCl) and 15 μl of MCF7 proteins."}, "[5]": {"target": "T2, ChEH (Rattus norvegicus, UniProt Q9JJ46)", "T2 construct": "150 μg of rat liver microsome proteins are incubated; from tissue; host or cells: rat liver microsomes", "T2 sequence (Q9JJ46 1-230)": "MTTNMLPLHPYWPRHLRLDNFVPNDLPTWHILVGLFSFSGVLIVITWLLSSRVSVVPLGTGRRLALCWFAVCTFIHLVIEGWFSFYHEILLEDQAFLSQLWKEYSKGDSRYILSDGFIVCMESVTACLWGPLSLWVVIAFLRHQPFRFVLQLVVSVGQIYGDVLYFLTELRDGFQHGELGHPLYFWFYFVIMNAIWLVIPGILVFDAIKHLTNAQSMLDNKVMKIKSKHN", "assay": "Determination of the Ki for ChEH on rat liver microsome proteins (Dixon method)", "assay_type": "biochemical", "details": "150 μg rat liver microsome proteins, [14C]CEα"}, "[6]": {"test_system": "TS/A cells", "assay": "Tumor size of TS/A tumors implanted in BALB/c mice, intratumoral treatment", "assay_type": "in vivo", "details": "DDA 10 μM, 100 μl intratumorally once a day", "experimental": "A cell culture of TS/A cells was first performed. These TS/A cells are mouse mammary adenocarcinomas (see Nanni P et al., Clin. Exp. Metastasis, 1983 October-December; 1(4): 373-80). The cells are cultured, at 37° C. under 5% CO2, in a DMEM medium supplemented with 2 g/liter of sodium carbonate, 1.2 mM of glutamine (pH 7.4 at 23° C.), 5% of fetal bovine serum (Gibco) and 2.5 ml of antibiotics per liter of medium (penicillin/streptomycin).\nThe TS/A cells are recovered with trypsin, washed twice and suspended in PBS buffer. The TS/A cells (approximately 4×10^6 […] cells/0.1 ml) are then injected subcutaneously into the flank of 6-week-old female BALB/c mice (supplied by Charles River). […] The animals (10 mice per group) are monitored regularly for tumor development. The volume of the tumors is calculated according to the following formula: L×l^2×0.5 (L is the length and l is the width of the tumor). The experiment was reproduced twice. The results are given in FIG. 18 (the arrow indicates the beginning of the treatment)."}}}
{"molecule": "CC(C)CCC[C@@H](C)[C@H]1CC[C@H]2[C@@H]3C[C@@H](NCCc4c[nH]cn4)[C@@]4(O)C[C@@H](O)CC[C@]4(C)[C@H]3CC[C@]12C", "note": "[DDA, 6-N-[2-(3H-imidazol-4-yl)ethylamino]cholestane-3β,5α-diol]", "values": [{"measurement": "OCDO (% control)", "setting": "[1]; Day 28", "result": "14.5 ± 3", "unit": "% control"}, {"measurement": "OCDO (% control)", "setting": "[1]; Day 37", "result": "4.5 ± 3", "unit": "% control"}, {"measurement": "inhibition of ChEH", "setting": "[2]; 0.1 and 1 μM, dependent on the concentration", "result": "causes an inhibition of ChEH"}, {"measurement": "IC50", "setting": "[2]; [14C]CE 0.6 μM", "result": 600, "unit": "nM"}, {"measurement": "OCDO production by MCF-7 (% control)", "setting": "[3]", "result": "<1", "unit": "% control"}, {"measurement": "IC50", "setting": "[4]", "result": 11200, "unit": "nM"}, {"measurement": "Ki", "setting": "[5]", "result": "1250 ± 6", "unit": "nM"}, {"measurement": "Tumor size (% control)", "setting": "[6]; Day 28", "result": "65.4 ± 7", "unit": "% control"}, {"measurement": "Tumor size (% control)", "setting": "[6]; Day 37", "result": "28.3 ± 8", "unit": "% control"}]}
